1 molecule from US20260325464A1, “COMPOSITIONS FOR MODULATING THE EXPRESSION OF AQUAPORINS IN NEURODEGENERATIVE DISORDERS” (priority 2023, published 2026) can be followed below.

Assay type in all cases: in vivo, rat
One test has as its system Alzheimer's disease. Put plainly: Elevated plus maze (EPM) test in rats with AlCl3-induced Alzheimer's disease. Particulars: for EPM at 16th day Transfer Latency / EPM at 17th day Transfer Latency: p.o. + AlCl3 (100 mg/kg, i.p.), Mean ± SEM, n = 6. The protocol:
Elevated plus maze (EPM)—Elevated plus maze (EPM)—This test was performed as per reported protocol (Bhuvanendran et al., Amelioration of cognitive deficit by Embelin in a Scopolamine-induced Alzheimer's disease-like condition in a rat model. Front Pharmacol. 2018:9(6):1-12 and Biradar et al., (2020) Experimental validation and network pharmacology evaluation to decipher the mechanism of action of Erythrina variegata L. bark against scopolamine-induced memory impairment in rats. Adv Tradit Med. 2020:26:1-4). EPM contains 2 closed and 2 open arms (four arms; equal dimensions of 50×10 cm). These 4 arms connect at central with a 10×10 cm square gap as an initial point. The transfer latency (TL) was recorded via stopwatch by keeping rats independently toward one side of the open arm. The EPM TL cut-off was set to 60 s throughout the study. […] Index of memory improvement is measured as a drop of transfer Latency (TL) by test drug.
The elevated plus maze is a test that is widely used to assess the anti-anxiety effects of test substances. As the test measures open arm activity, an increase in open arm activity (duration and/or entries) reflects anti-anxiety behaviour (Walf et al., The use of the elevated plus maze as an assay of anxiety-related behavior in rodents, Nat Protoc. 2007; 2(2): 322-328). In the present study, inducing Alzheimer's in the animals increased their anxiety which was reduced by the administration on Gingerenone A (Table 3).

In the next test the test system is Dopamine. Put plainly: Dopamine in brain (kinetic spectrophotometric), reserpine Parkinson's model. Conditions: for Dopamine: p.o. + Reserpine (4 mg/kg, s.c.), brain, Mean ± SEM, n = 6. An excerpt: The induction of Parkinson's disease and measurement of other parameters were done as per the reported protocol (Santos et al., Cognitive, motor and tyrosine hydroxylase temporal impairment in a model of parkinsonism induced by reserpine. Behav Brain Res. 2013; 253:68-77 and Shishehbore et al. A novel kinetic spectrophotometric method for the determination of dopamine in biological and pharmaceutical samples. J Chem. 2013; 2013:1-6). Induction of Parkinson's disease was done by administering Resperine, which inhibits the monoamine vesicular transporters, thus decreasing the levels of monoamine neurotransmitters in the brain. Following pretreatment for 14 days with Gingerenone A, the rat groups received subcutaneous injections of reserpine (4 mg/kg) for the final five days of the treatment regimen. Resperine (5 mg) was dissolved in 1 ml of 1% acetic acid and then diluted tenfold with distilled water to achieve a final concentration of 500 μg/ml. The normal control group received saline with 1% acetic acid for 14 days, administered from day 10 to day 14. Thirty minutes following the administration of reserpine on the 14th day, behavioural assessments were conducted using the Open Field test, Y Maze, and Catalepsy tests to evaluate changes. […] Upon completion of the study, brains were harvested for biochemical analyses and histopathological studies. The experimental group is depicted in table 10.
Dopamine—Studies have shown that symptoms of Parkinson's develop in patients with an 80 percent or greater loss of dopamine-producing cells in the substantia nigra. Normally, dopamine operates in a delicate balance with other neurotransmitters to help coordinate the millions of nerve and muscle cells involved in movement. Neurons of the substantia nigra communicate with neurons of the basal ganglia by liberating the neurotransmitter dopamine (DA). Such an interaction at the biochemical level is responsible for the fine tuning of the movements. The proposed method for the estimation of dopamine is based on inhibitory effect of dopamine on the oxidation of thionine by bromate in acidic media. The change in absorbance was recorded spectrophotometrically at 601 nm (Shishehbore et al., Novel Kinetic Spectrophotometric Method for the Determination of Dopamine in Biological and Pharmaceutical Samples. 2013. Article ID 819460, https://doi.org/10.1155/2013/819460).

The next test relates to Aquaporin 9 (AQP9). Nature of the test: AQP9 expression, reserpine Parkinson's model. Conditions: 5, 10 and 20 mg/kg, FIG. 9. The text has this:
The induction of Parkinson's disease and measurement of other parameters were done as per the reported protocol (Santos et al., Cognitive, motor and tyrosine hydroxylase temporal impairment in a model of parkinsonism induced by reserpine. Behav Brain Res. 2013; 253:68-77 and Shishehbore et al. A novel kinetic spectrophotometric method for the determination of dopamine in biological and pharmaceutical samples. J Chem. 2013; 2013:1-6). Induction of Parkinson's disease was done by administering Resperine, which inhibits the monoamine vesicular transporters, thus decreasing the levels of monoamine neurotransmitters in the brain. Following pretreatment for 14 days with Gingerenone A, the rat groups received subcutaneous injections of reserpine (4 mg/kg) for the final five days of the treatment regimen. Resperine (5 mg) was dissolved in 1 ml of 1% acetic acid and then diluted tenfold with distilled water to achieve a final concentration of 500 μg/ml. The normal control group received saline with 1% acetic acid for 14 days, administered from day 10 to day 14. Thirty minutes following the administration of reserpine on the 14th day, behavioural assessments were conducted using the Open Field test, Y Maze, and Catalepsy tests to evaluate changes. Rats administered with Carbidopa, a known drug for the management of Parkinson's disease was also used for comparison. […]

As for `COc1cc(CC/C=C/C(=O)CCc2ccc(O)c(OC)c2)ccc1O` [Gingerenone A], the entries for the “EPM at 16th day Transfer Latency” value with Alzheimer's disease (5 mg/kg), with Alzheimer's disease (10 mg/kg) and in the test on Alzheimer's disease (20 mg/kg) were 25.70 ± 0.88 s, 21.76 ± 1.03 s and 19.38 ± 0.87 s, respectively. Also, the results for the “EPM at 17th day Transfer Latency” value in the test on Alzheimer's disease (5 mg/kg), in the test with Alzheimer's disease (10 mg/kg) and in the test with Alzheimer's disease (20 mg/kg) were 25.21 ± 1.04 s, 19.37 ± 0.47 s and 18.59 ± 0.86 s, respectively. For the same molecule, the “anxiety in EPM (in words)” value in the test on Alzheimer's disease (AlCl3 model, Table 3) is on record as “reduced”. Further, the Dopamine in the test with Dopamine (5 mg/kg) was determined as 0.124 ± 0.007 µg/mL; in the test with Dopamine (10 mg/kg), 0.142 ± 0.011 µg/mL; in the test on Dopamine (20 mg/kg), 0.141 ± 0.011 µg/mL. Moreover, in the test on Dopamine (reserpine model, Table 14), the “dopamine levels (in words)” value is reported as “increased”. In addition, the “AQP9 expression (in words)” value in the test with Aquaporin 9 (AQP9) is on record as “inhibited AQP9 expression”.
